The values below come from PubChem BioAssay AID248 (DTP/NCI, 2004).

“And” between values parts separate entries of the source, which are not always exact repeats. Equal values may be shown once. Inconclusive results and toxic doses are left out.

For the assay, the system named is L1210 leukemia ip in BDF1 mice, survival T/C. Put plainly: NCI In Vivo Anticancer Drug Screen. Data for tumor model L1210 Leukemia (intraperitoneal) in B6D2F1 (BDF1) mice. The conditions noted are these: endpoint: mean survival time, higher = longer survival. The essentials: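 Survival endpoint. Drug-treated group vs vehicle group, expressed as T divided by C. Tumor passaged by transplantation.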

Where [1] appears, read: dose: 6.25 mg/kg/injection, schedule: Q01DX009 (ip), vehicle: saline.
Setting [2] is: dose: 75.0 mg/kg/injection, schedule: Q01DX001 (ip), vehicle: saline.
Where [3] appears, read: dose: 150.0 mg/kg/injection, schedule: Q01DX001 (ip), vehicle: saline.
Where [4] appears, read: dose: 300.0 mg/kg/injection, schedule: Q01DX001 (ip), vehicle: saline.
Where [5] appears, read: dose: 100.0 mg/kg/injection, schedule: Q04DX003 (ip), vehicle: saline.
[6] abbreviates: dose: 200.0 mg/kg/injection, schedule: Q04DX003 (ip), vehicle: saline.
[7] abbreviates: dose: 25.0 mg/kg/injection, schedule: Q01DX009 (ip), vehicle: saline with Tween-80.
Setting [8] is: dose: 50.0 mg/kg/injection, schedule: Q01DX009 (ip), vehicle: saline with Tween-80.
[9] abbreviates: dose: 100.0 mg/kg/injection, schedule: Q01DX009 (ip), vehicle: saline with Tween-80.
[10] abbreviates: dose: 100.0 mg/kg/injection, schedule: Q01DX009 (ip), vehicle: Klucel (hydroxypropylcellulose) (HPC).
[11] abbreviates: dose: 100.0 mg/kg/injection, schedule: Q04DX003 (ip), vehicle: Klucel (hydroxypropylcellulose) (HPC).
[12] abbreviates: dose: 200.0 mg/kg/injection, schedule: Q04DX003 (ip), vehicle: Klucel (hydroxypropylcellulose) (HPC).
[13] abbreviates: dose: 100.0 mg/kg/injection, schedule: Q01DX001 (ip), vehicle: saline.
The mark [14] stands for this setting: dose: 200.0 mg/kg/injection, schedule: Q01DX001 (ip), vehicle: saline.
Where [15] appears, read: dose: 400.0 mg/kg/injection, schedule: Q01DX001 (ip), vehicle: saline.

As for `CCOC(=O)NC1=C(N2CC2(C)C)C(=O)C(NC(=O)OCC)=C(N2CC2(C)C)C1=O`, the T/C reads like this: (dose: 0.93 mg/kg/injection, schedule: Q01DX009 (ip), vehicle: saline) 94 % of control and 110 % of control; (dose: 1.87 mg/kg/injection, schedule: Q01DX009 (ip), vehicle: saline) 100 % of control and 91 % of control; (dose: 3.75 mg/kg/injection, schedule: Q01DX009 (ip), vehicle: saline) 96 % of control and 102 % of control; (dose: 7.5 mg/kg/injection, schedule: Q01DX009 (ip), vehicle: saline) 102 % of control and 107 % of control; (dose: 15.0 mg/kg/injection, schedule: Q01DX009 (ip), vehicle: saline) 96 % of control and 89 % of control; (dose: 30.0 mg/kg/injection, schedule: Q01DX009 (ip), vehicle: saline) 100 % of control and 102 % of control.

For the molecule `CN(C)c1ccc(N=NC#N)cc1`, the T/C is 108 % of control (dose: 1.56 mg/kg/injection, schedule: Q01DX009 (ip), vehicle: saline); 105 % of control (dose: 3.12 mg/kg/injection, schedule: Q01DX009 (ip), vehicle: saline); 104 % of control (dose: 6.25 mg/kg/injection, schedule: Q01DX009 (ip), vehicle: saline with Tween-80); 105 % of control under setting [1].

On to `O=NN(CCCl)C(=O)Nc1cccc([N+](=O)[O-])c1`, for which the T/C (dose: 12.0 mg/kg/injection, schedule: Q01DX001 (ip), vehicle: carboxymethylcellulose (CMC)) is 152 % of control; the T/C (dose: 18.0 mg/kg/injection, schedule: Q01DX001 (ip), vehicle: carboxymethylcellulose (CMC)) was 156 % of control; the T/C (dose: 26.0 mg/kg/injection, schedule: Q01DX001 (ip), vehicle: carboxymethylcellulose (CMC)) was 176 % of control; the T/C (dose: 40.0 mg/kg/injection, schedule: Q01DX001 (ip), vehicle: carboxymethylcellulose (CMC)) was 174 % of control; the T/C (dose: 60.0 mg/kg/injection, schedule: Q01DX001 (ip), vehicle: carboxymethylcellulose (CMC)) is 91 % of control.

Regarding `C=Cc1ccccn1`, the T/C runs as follows: under setting [2], 98 % of control; under setting [3], 102 % of control; under setting [4], 97 % of control.

For the molecule `CCCCCCCCCCCCC1C(=O)NC(=S)NC1=O`, the T/C was 97 % of control and 100 % of control (dose: 75.0 mg/kg/injection, schedule: Q01DX001 (ip), vehicle: other); 101 % of control and 113 % of control (dose: 150.0 mg/kg/injection, schedule: Q01DX001 (ip), vehicle: other); 103 % of control (dose: 300.0 mg/kg/injection, schedule: Q01DX001 (ip), vehicle: other).

As for `CC1(Br)C(=O)C(O)=C(Br)C1=O` (configuration not stated), the T/C under setting [2] was 104 % of control and the T/C under setting [3] was 106 % of control.

As to `Cc1ccc(C)c2c1CC(C(=O)O)CC2C` (configuration not stated), the T/C is, setting by setting: under setting [5], 93 % of control; under setting [6], 110 % of control.

With `CC/C=C/N1CCCCC1`, the T/C under setting [7] is 97 % of control; the T/C under setting [8] is 94 % of control; the T/C under setting [9] was 113 % of control and 91 % of control.

`NC(=O)N/N=C(\CBr)c1ccc([N+](=O)[O-])cc1`: the T/C by setting is: under setting [5], 96 % of control; under setting [6], 89 % of control; (dose: 400.0 mg/kg/injection, schedule: Q04DX003 (ip), vehicle: saline) 91 % of control.

In the case of `CCc1ccccc1NC(=O)Sc1cccc(C)c1`, the T/C (dose: 25.0 mg/kg/injection, schedule: Q01DX009 (ip), vehicle: Klucel (hydroxypropylcellulose) (HPC)) was 96 % of control; the T/C (dose: 50.0 mg/kg/injection, schedule: Q01DX009 (ip), vehicle: Klucel (hydroxypropylcellulose) (HPC)) was 96 % of control; the T/C under setting [10] is 98 % of control and 103 % of control; the T/C under setting [11] is 100 % of control; the T/C under setting [12] was 105 % of control.

As for `Cc1ccc(Oc2cccc3c[n+](C)ccc23)cc1`, the T/C is 93 % of control (dose: 25.0 mg/kg/injection, schedule: Q04DX002 (ip), vehicle: DMSO); 96 % of control (dose: 50.0 mg/kg/injection, schedule: Q04DX002 (ip), vehicle: DMSO); 86 % of control (dose: 100.0 mg/kg/injection, schedule: Q04DX002 (ip), vehicle: DMSO).

On to `Cn1nc(-c2ccccc2)[n+](C)n1`, for which the T/C was 104 % of control under setting [2], 100 % of control under setting [3] and 100 % of control under setting [4].

For `O=[N+]([O-])c1cccc(Cl)c1Oc1cc(Cl)c(Cl)cc1Cl`, the T/C was 105 % of control (dose: 1.25 mg/kg/injection, schedule: Q01DX001 (ip), vehicle: saline); 105 % of control (dose: 2.5 mg/kg/injection, schedule: Q01DX001 (ip), vehicle: saline); 102 % of control (dose: 5.0 mg/kg/injection, schedule: Q01DX001 (ip), vehicle: saline); 96 % of control (dose: 10.0 mg/kg/injection, schedule: Q01DX001 (ip), vehicle: saline).

Regarding `CC(C)(C)C1CCC2(CC1)CO2` (configuration not stated), the T/C under setting [13] was 98 % of control.

Take `CNC(=O)n1cncn1`: the T/C was 95 % of control under setting [13]; 101 % of control under setting [5]; 93 % of control under setting [14]; 95 % of control under setting [6]; 95 % of control under setting [15].

With `CC1(C)Cc2cc3ccccc3nc2-c2ccccc21`, the T/C is 97 % of control under setting [7], 97 % of control under setting [8] and 94 % of control under setting [9].

Turning to `COC1=C(Nc2ccc(C)cc2)C(=O)C(OC)=C(Nc2ccc(C)cc2)C1=O`, the T/C reads like this: (dose: 50.0 mg/kg/injection, schedule: Q01DX001 (ip), vehicle: saline) 98 % of control; under setting [13], 93 % of control; under setting [14], 95 % of control.

For the molecule `CCOC(=O)NC(C)(C)CN(CCO)C(=O)OCC`, the T/C is 100 % of control under setting [10]; 105 % of control under setting [11]; 97 % of control (dose: 200.0 mg/kg/injection, schedule: Q01DX009 (ip), vehicle: Klucel (hydroxypropylcellulose) (HPC)); 102 % of control under setting [12]; 97 % of control (dose: 400.0 mg/kg/injection, schedule: Q01DX009 (ip), vehicle: Klucel (hydroxypropylcellulose) (HPC)); 93 % of control (dose: 400.0 mg/kg/injection, schedule: Q04DX003 (ip), vehicle: Klucel (hydroxypropylcellulose) (HPC)).

As to `COC(=O)c1ccc(N(C)CCC(=O)CN)cc1`, the T/C is 98 % of control under setting [13], 101 % of control under setting [14] and 104 % of control under setting [15].

Take `Cc1c(F)cccc1OCC(=O)O`: the T/C by setting is: (dose: 100.0 mg/kg/injection, schedule: Q04DX002 (ip), vehicle: Klucel (hydroxypropylcellulose) (HPC)) 111 % of control; (dose: 200.0 mg/kg/injection, schedule: Q04DX002 (ip), vehicle: Klucel (hydroxypropylcellulose) (HPC)) 108 % of control; (dose: 400.0 mg/kg/injection, schedule: Q04DX002 (ip), vehicle: Klucel (hydroxypropylcellulose) (HPC)) 105 % of control.

As for `NC(=O)c1ccn(C2OC(CO)C(O)C2O)n1` (configuration not stated), the T/C is, setting by setting: (dose: 50.0 mg/kg/injection, schedule: Q01DX005 (ip), vehicle: water) 105 % of control; (dose: 100.0 mg/kg/injection, schedule: Q01DX005 (ip), vehicle: water) 102 % of control; (dose: 200.0 mg/kg/injection, schedule: Q01DX005 (ip), vehicle: water) 102 % of control.

Regarding `C/C(CCCCl)=N/NC(N)=S`, the T/C by setting is: under setting [1], 98 % of control; (dose: 6.25 mg/kg/injection, schedule: Q04DX003 (ip), vehicle: saline with Tween-80) 98 % of control; (dose: 12.5 mg/kg/injection, schedule: Q01DX009 (ip), vehicle: saline) 107 % of control; (dose: 12.5 mg/kg/injection, schedule: Q04DX003 (ip), vehicle: saline with Tween-80) 92 % of control; (dose: 25.0 mg/kg/injection, schedule: Q04DX003 (ip), vehicle: saline with Tween-80) 90 % of control; (dose: 100.0 mg/kg/injection, schedule: Q01DX001 (ip), vehicle: acetone) 100 % of control. Under “dose: 200.0 mg/kg/injection, schedule: Q01DX001 (ip), vehicle: acetone”, the T/C is 90 % of control.

`O=C(O)c1cc2ccccc2cn1`: the T/C (dose: 100.0 mg/kg/injection, schedule: Q04DX002 (ip), vehicle: saline) is 102 % of control and the T/C (dose: 200.0 mg/kg/injection, schedule: Q04DX002 (ip), vehicle: saline) was 93 % of control.
